System: 3T3-L1 adipocytes
Assay: GSV-PM fusion in live adipocytes (IRAP-pHluorin, TIRF microscopy)
Format: cell-based, mouse
From the text: FIG. 3, panels A-C, show knockdown of CDP138 in live 3T3-L1 adipocytes inhibits insulin-stimulated membrane fusion between GLUT4 storage vesicles (GSV) and the PM, but not GLUT4-EGFP trafficking to the TIRF zone. (A): Schematic illustration of the molecular probes and TIRF microcopy-based live cell assays for GLUT4 trafficking and GSV-PM fusion. (B) and (C): The effect of CDP138 knockdown on insulin-stimulated IRAP-pHluorin insertion into the PM (B), and accumulation of GLUT4-EGFP in the TIRF zone (C). Adipocytes (day 4) were transfected by electroporation with plasmid DNA encoding IRAP-pHluorin or GLUT4-EGFP, together with either the scrambled siRNA or smartPool siRNA against mouse 5730419I09Rik. Cells were reseeded on glass-bottomed dishes for 72 hrs, serum starved for 2 hr then stimulated with 100 nM insulin for 30 min. Analyses were performed in a cell warmer adapted for a Nikon TiE with fully motorized combined dual laser (488 and 561 nm). Images were acquired every 3 min immediately after addition of insulin and analyzed as described in the Supplementary Experimental Procedures. Perfect focus system and multiple points capture program (NIS Element) were used to acquire images from multiple positively transfected cells at each time point. […]
Total Internal Reflection Fluorescence (TIRF) Microscopy: Nikon (Melville, N.Y.) TI-TIRF-E, which was based on the objective lens method, was used to perform all the TIRF experiments. […] Positively transfected adipocytes were identified, and the insulin-stimulated IRAP vesicle-PM fusion events or GLUT4-EGFP trafficking to the TIRF zone were recorded every 3 min for a 30 min period using Nikon Eclipse-Ti TIRF microscope. […]
Image Analysis and Quantification: TIRF and wide field fluorescence microscopy were performed using a Nikon inverted microscope (Melville, N.Y.) with a cooled charge-coupled device camera. […]

insulin
stimulation of GSV fusion with the PM in the TIRF zone: significantly stimulates

From US20120204273A1, “COMPOSITIONS RELATING TO A PHOSPHOPROTEIN AND METHODS OF USE” (SANFORD-BURNHAM MEDICAL RESEARCH INSTITUTE, priority 2010, published 2012)
